A word on the LogP: it is the decadic logarithm of the partition coefficient of the neutral form, usually between octanol and water. What is called chromatographic logP is lipophilicity estimated from chromatographic retention. Lower therefore signals a more hydrophilic compound.

Series [1] in a line: LogP by HPLC on reversed phase columns (EEC directive 79/831 Annex V.A8). The series is classed as physicochemical. The note with it: pH 2.7, 0.1% formic acid in water / acetonitrile gradient. How it is done: Measurement of Iog P values was performed according EEC directive 79/831 Annex V.A8 by HPLC (High Performance Liquid Chromatography) on reversed phase columns with the following method:
Measurement of LC-MS was done at pH 2.7 with 0.1% formic acid in water and with acetonitrile (contains 0.1% formic acid) as eluent with a linear gradient from 10% acetonitrle to 95% acetonitrile.
Calibration was done with not branched alkan2-ones (with 3 to 16 carbon atoms) with known log P-values (measurement of log P values using retention times with linear interpolation between successive alkanones). lambda-maX-values were determined using UV-spectra from 200 nm to 400 nm and the peak values of the chromatographic signals.

Another series concerns Phytophthora infestans. The series is classed as in vivo. The following applies: tomatoes, preventive spray, 10 ppm of active ingredient, evaluated 3 days after inoculation.
A further series relates to Plasmopara viticola. Put plainly: Plasmopara test (grapevines) / preventive. It is filed as in vivo. The following applies: preventive spray, 100 ppm of active ingredient, evaluated 6 days after inoculation. How it is done: Plasmopara Test (Grapevines)/Preventive
To produce a suitable preparation of active compound, 1 part by weight of active compound is mixed with the stated amounts of solvent and emulsifier, and the concentrate is diluted with water to the desired concentration.
To test for preventive activity, young plants are sprayed with the preparation of active compound at the stated rate of application. After the spray coating has dried on, the plants are inoculated with an aqueous spore suspension of Plasmopara viticola and then remain for 1 day in an incubation cabinet at approximately 20° C. and a relative atmospheric humidity of 100%. The plant is subsequently placed for 4 days in a greenhouse at approximately 21° C. and a relative atmospheric humidity of approximately 90%. The plants are then misted and placed for 1 day in an incubation cabinet.
The test is evaluated 6 days after the inoculation. 0% means an efficacy which corresponds to that of the untreated control, while an efficacy of 100% means that no disease is observed.

The test system of another series is Pythium ultimum. The series is described as follows: Pythium test (cotton) / seed treatment. It is filed as in vivo. The note with it: 50 g/dt seed of active ingredient, greenhouse 7 days, emerged seedlings. On the procedure: Pythium Test (cotton)/Seed Treatment
The test is performed under greenhouse conditions.
Cotton seeds, treated with the active compound or compound combinations, solved in N-methyl-2-pyrrolidon and diluted with water to the desired dosages, were sown in 6*6 cm pots containing 4 cm of a 1:1 mix of steamed field soil and sand.
Perlite was incubated with mycelium fragments of Pythium ultimum. 1 ml of infected perlite was scattered between the treated cotton seeds. Seeds were then covered by light expanded clay aggregate. Pots were incubated in the greenhouse 7 days at 20° C. and 80% relative humidity.
Assessment consisted of counting of emerged seedlings. 0% means an efficacy which corresponds to that of the control, while an efficacy of 100% means that all seedlings have emerged.

Compound `CC(=CC(=O)Nc1cccc(CON=C(c2ccccc2)n2nnnc2C)n1)C1CC1` (mixture of isomers) [Example 31] yielded a LogP in series [1] of 3.59. In addition, in the series with Phytophthora infestans, the Eff. % worked out at 93%.
In turn, `Cc1nnnn1C(=NOCc1cccc(NC(=O)C=CC2CCCCC2)n1)c1ccccc1` (mixture of isomers) [Example 32] came in with a LogP in series [1] of 4.46. This compound showed an Eff. % in the series with Phytophthora infestans of 95%.
Compound `CC(=CC(=O)Nc1cccc(CON=C(c2ccccc2)c2nnnn2C)n1)C1CC1` [Example 1, 3-cyclopropyl-N-{6-[({[(1-methyl-1H-tetrazol-5-yl)(phenyl)methylene]amino}oxy)methyl]pyridin-2-yl}but-2-enamide] displayed a chromatographic logP in series [1] (reversed phase HPLC column) of 3.48. The Eff. % with Phytophthora infestans is recorded as 95%; in the series on Plasmopara viticola, 97%; in the series with Pythium ultimum, 100%.
With `CC(=CC(=O)Nc1cccc(CON=C(c2ccccc2)c2nnnn2C)n1)C1CC1` [Example 2], the LogP in series [1] turned out to be 3.29. Further, the Eff. % with Phytophthora infestans worked out at 100%; in the series on Plasmopara viticola, 84%.
Turning to `CC(=CC(=O)Nc1cccc(CON=C(c2ccccc2)c2nnnn2C)n1)C1CC1` [Example 3], the log partition coefficient (LogP) in series [1] turned out to be 3.46. Besides, the Eff. % in the series on Phytophthora infestans worked out at 95%.
As for `CC(=CC(=O)Nc1cccc(CON=C(c2ccccc2)c2nnnn2C)n1)C1CCCCC1` [Example 5], in series [1], the lipophilicity (LogP) was found to be 4.82. Also, the Eff. % in the series on Phytophthora infestans is listed as 90%; in the series with Plasmopara viticola it was 91%.
`Cn1nnnc1C(=NOCc1cccc(NC(=O)C=CC2CCCCC2)n1)c1ccccc1` [Example 6] gave a log partition coefficient (LogP) in series [1] of 4.36. Also, the Eff. % in the series with Phytophthora infestans came to 95%; in the series with Plasmopara viticola, 93%.
Consider `CC(=CC(=O)Nc1nc(CON=C(c2ccccc2)n2nnnc2C)cs1)C1CC1` [Example 7], for which the lipophilicity (LogP) in series [1] came out at 3.46.
For the compound `Cc1nnnn1C(=NOCc1csc(NC(=O)C=C(c2ccccc2)C2CC2)n1)c1ccccc1` [Example 9], in series [1], the lipophilicity (LogP) is on record as 4.26. The Eff. % in the series with Phytophthora infestans was 85%.
For `CC(=CC1CCCC1)C(=O)Nc1nc(CON=C(c2ccccc2)n2nnnc2C)cs1` [Example 10], the LogP in series [1] turned out to be 4.16. In the series with Phytophthora infestans, this compound showed an Eff. % of 80%.
In the case of `CC(=CC1CC1)C(=O)Nc1nc(CON=C(c2ccccc2)n2nnnc2C)cs1` [Example 11], in series [1], the LogP worked out at 3.52. For the same compound, the Eff. % with Phytophthora infestans was 95%.
In turn, `CC(C)=CC(=O)Nc1nc(CON=C(c2ccccc2)n2nnnc2C)cs1` [Example 12] registered a log partition coefficient (LogP) in series [1] of 3.15. Besides, the Eff. % in the series on Phytophthora infestans amounted to 80%.
With `Cc1nnnn1C(=NOCc1csc(NC(=O)C=CC2CC2)n1)c1ccccc1` [Example 13], in series [1], the log partition coefficient (LogP) turned out to be 3.09.
On the same count and under the same terms, the value for `Cc1nnnn1C(=NOCc1csc(NC(=O)C=C(C2CC2)C2CC2)n1)c1ccccc1` [Example 15] was 3.83.
Turning to `Cc1nnnn1C(=NOCc1csc(NC(=O)C=CC2CCCCC2)n1)c1ccccc1` [Example 16], in series [1], the LogP is reported as 2.53. Moreover, the Eff. % with Phytophthora infestans was determined as 90%.
In turn, `Cc1nnnn1C(=NOCc1csc(NC(=O)C=C(c2ccccc2)C2CC2)n1)c1ccccc1` [Example 17] displayed a log partition coefficient (LogP) in series [1] of 2.38.
Compound `CC(=CC(=O)Nc1nc(CON=C(c2ccccc2)c2nnnn2C)cs1)C1CC1` [Example 18] had a lipophilicity (LogP) in series [1] of 3.41.
Regarding `CC(=CC(=O)Nc1nc(CON=C(c2ccccc2)c2nnnn2C)cs1)C1CCCCC1` [Example 20], the LogP in series [1] amounted to 4.66. The compound further came in with an Eff. % with Phytophthora infestans of 80%.
`CC(=CC(=O)Nc1nc(CON=C(c2ccccc2)c2nnnn2C)cs1)C1CCCCC1` [Example 21] displayed a LogP in series [1] of 4.44.
`Cn1nnnc1C(=NOCc1csc(NC(=O)C=C(c2ccccc2)C2CC2)n1)c1ccccc1` [Example 22] gave a log partition coefficient (LogP) in series [1] of 4.21. In the series with Phytophthora infestans, this compound returned an Eff. % of 80%.
With `Cn1nnnc1C(=NOCc1csc(NC(=O)C=C(C2CC2)C2CC2)n1)c1ccccc1` [Example 23], in series [1], the log partition coefficient (LogP) turned out to be 3.76. Also, the Eff. % in the series with Phytophthora infestans is reported as 85%.
In series [1], `Cn1nnnc1C(=NOCc1csc(NC(=O)C=CC2CC2)n1)c1ccccc1` [Example 24] displayed a LogP of 3.04. In addition, the Eff. % in the series with Phytophthora infestans is reported as 95%; in the series with Plasmopara viticola, 90%.
`CC(=CC1CCCC1)C(=O)Nc1nc(CON=C(c2ccccc2)c2nnnn2C)cs1` [Example 26] came in with a lipophilicity (LogP) in series [1] of 4.09. Besides, the values for the Eff. % with Phytophthora infestans and in the series on Plasmopara viticola were 95% and 90%, respectively.
In series [1], `CC(=CC1CC1)C(=O)Nc1nc(CON=C(c2ccccc2)c2nnnn2C)cs1` [Example 27] had a LogP of 3.44. Besides, the Eff. % in the series on Phytophthora infestans was determined as 95%.
The corresponding values for `CC(C)=CC(=O)Nc1nc(CON=C(c2ccccc2)c2nnnn2C)cs1` [Example 28] are 3.08 and 90%.
For the compound `Cn1nnnc1C(=NOCc1csc(NC(=O)C=CC2CCCCC2)n1)c1ccccc1` [Example 29], in series [1], the LogP worked out at 2.5. For the same compound, the Eff. % in the series on Phytophthora infestans was determined as 95%.
The compound `Cn1nnnc1C(=NOCc1csc(NC(=O)C=C(c2ccccc2)C2CC2)n1)c1ccccc1` [Example 30] came in with a LogP in series [1] of 2.36. In addition, the Eff. % in the series with Phytophthora infestans was 85%.
Take `Cc1nnnn1C(=NOCc1cccc(NC(=O)C=C(c2ccccc2)C2CC2)n1)c1ccccc1` [Example 33]: the LogP in series [1] is listed as 4.41. This compound also yielded an Eff. % with Phytophthora infestans of 95%.

Source of the values: patent US20140005230A1 (priority 2011, published 2014).
